The values that follow come from ChEMBL document CHEMBL1142401, “QSAR modeling of the rodent carcinogenicity of nitrocompounds” (2008).

For this assay, the species on record is Rattus norvegicus. As to the kind of experiment: Anticarcinogenic activity in rat assessed as induction of tumors per day. It counts as functional.
One may read the TD50 as the dose at which the toxic effect under study appears in half of the subjects. With `Nc1nnc(-c2ccc([N+](=O)[O-])o2)s1`, the TD50 turned out to be 3.12 µmol/kg and the pTD50 is recorded as 0.494.

With `O=[N+]([O-])c1cccc2cccnc12`, the TD50 is 54.836 µmol/kg and the pTD50 came out at 1.739.

In the case of `O=[N+]([O-])c1ccc(-c2nc(N3CCOCC3)c3ccccc3n2)s1`, the TD50 is 14.692 µmol/kg and the pTD50 amounted to 1.167.

As to `CC(=O)Nc1nc(-c2ccc([N+](=O)[O-])o2)cs1`, the TD50 came out at 28.63 µmol/kg and the pTD50 was 1.457.

With `O=[N+]([O-])c1ccc(-c2nnc(O)o2)o1`, the TD50 was found to be 43.682 µmol/kg and the pTD50 is 1.64.

Regarding `O=C1NC(c2ccc([N+](=O)[O-])s2)Nc2ccccc21` (stereo not drawn), the TD50 was determined as 5.558 µmol/kg and the pTD50 was 0.745.

For `O=[N+]([O-])c1ccc(-c2cnc3ccccn23)o1`, the TD50 came out at 68.938 µmol/kg and the pTD50 came to 1.838.

With `CC(C)=NNc1nc(-c2ccc([N+](=O)[O-])o2)cs1`, the TD50 amounted to 22.721 µmol/kg and the pTD50 was 1.356.

On to `Nc1nc(-c2ccc([N+](=O)[O-])o2)cs1`, for which the TD50 was 27.699 µmol/kg and the pTD50 is on record as 1.442.

Turning to `NC(=O)/C(=C\c1ccc([N+](=O)[O-])o1)c1ccco1`, the TD50 was determined as 45.932 µmol/kg and the pTD50 came to 1.662.

`CC(=O)Nc1nc(NC(C)=O)nc(-c2ccc([N+](=O)[O-])o2)n1`: the TD50 was found to be 41.798 µmol/kg and the pTD50 came to 1.621.

For the compound `CC(C)(C)c1cc([N+](=O)[O-])cc([N+](=O)[O-])c1OS(C)(=O)=O`, the TD50 was 8.357 µmol/kg and the pTD50 was found to be 0.922.

Consider `Cc1cc(C)nc(-c2ccc([N+](=O)[O-])o2)n1`, for which the TD50 is 11.907 µmol/kg and the pTD50 turned out to be 1.076.

In the case of `CC(=O)Nc1nnc(-c2ccc([N+](=O)[O-])o2)s1`, the TD50 was 34.773 µmol/kg and the pTD50 stood at 1.541.

Take `CC(=O)NCc1nc(-c2ccc([N+](=O)[O-])o2)no1`: the TD50 was determined as 20.62 µmol/kg and the pTD50 is 1.314.

As to `CC(C)[N+](=O)[O-]`, the TD50 worked out at 3288.692 µmol/kg and the pTD50 was found to be 3.517.

In the case of `CN(C)C/N=c1\[nH]nc(/C=C/c2ccc([N+](=O)[O-])o2)o1`, the TD50 stood at 73.052 µmol/kg and the pTD50 is 1.864.

Consider `NNc1nc(-c2ccc([N+](=O)[O-])o2)cs1`, for which the TD50 stood at 12.51 µmol/kg and the pTD50 was determined as 1.097.

For `CN(C)Nc1nc(-c2ccc([N+](=O)[O-])o2)cs1`, the TD50 is 1.538 µmol/kg and the pTD50 is given as 0.187.

Consider `Nc1nc(N)nc(-c2ccc([N+](=O)[O-])o2)n1`, for which the TD50 is 7.697 µmol/kg and the pTD50 was found to be 0.886.

Consider `CC(=O)OC(OC(C)=O)c1ccc([N+](=O)[O-])o1`, for which the TD50 amounted to 431.796 µmol/kg and the pTD50 is on record as 2.635.

Take `O=[N+]([O-])c1ccc(-c2nc(NCCO)c3ccccc3n2)s1`: the TD50 stood at 12.139 µmol/kg and the pTD50 stood at 1.084.

For the compound `COc1c(Cl)c(Cl)c([N+](=O)[O-])c(Cl)c1Cl`, the TD50 was determined as 65.65 µmol/kg and the pTD50 was found to be 1.82.

For the compound `O=C(Nc1nc(-c2ccc([N+](=O)[O-])o2)cs1)C(F)(F)F`, the TD50 amounted to 18.164 µmol/kg and the pTD50 is 1.259.

Regarding `Nc1ncc([N+](=O)[O-])s1`, the TD50 worked out at 223.922 µmol/kg and the pTD50 is 2.35.

Turning to `O=[N+]([O-])c1ccc2c3c(cccc13)CC2`, the TD50 is 30.02 µmol/kg and the pTD50 came out at 1.48.

As to `Nc1nnc(-c2ccc([N+](=O)[O-])o2)o1`, the TD50 stood at 13.971 µmol/kg and the pTD50 is reported as 1.145.

With `Cl.O=C1OC(CN2CCOCC2)CN1/N=C/c1ccc([N+](=O)[O-])o1` (stereo not drawn), the TD50 is 8.665 µmol/kg and the pTD50 came out at 0.938.

Regarding `NNc1nc(-c2ccc([N+](=O)[O-])cc2)cs1`, the TD50 was 3.145 µmol/kg and the pTD50 was determined as 0.498.

Turning to `O=CNc1nc(-c2ccc([N+](=O)[O-])o2)cs1`, the TD50 stood at 21.195 µmol/kg and the pTD50 stood at 1.326.

Take `N/C(=N\O)c1ccc([N+](=O)[O-])o1`: the TD50 was found to be 245.455 µmol/kg and the pTD50 is 2.39.

Take `O=[N+]([O-])c1ccc2ccc3cccc4ccc1c2c34` [1-NITROPYRENE]: the TD50 worked out at 13.468 µmol/kg and the pTD50 is reported as 1.129.

In the case of `COc1ccccc1[N+](=O)[O-]` [2-NITROANISOLE], the TD50 turned out to be 69.87 µmol/kg and the pTD50 is 1.84.

For `Nc1ccc([N+](=O)[O-])cc1` [4-NITROANILINE], the TD50 came to 65.521 µmol/kg and the pTD50 turned out to be 1.816.

Regarding `Cn1cnc([N+](=O)[O-])c1Sc1ncnc2[nH]cnc12` [AZATHIOPRINE], the TD50 was determined as 36.428 µmol/kg and the pTD50 came to 1.561.

Take `O=C(N[C@H](CO)[C@H](O)c1ccc([N+](=O)[O-])cc1)C(Cl)Cl` [CHLORAMPHENICOL]: the TD50 is 860.336 µmol/kg and the pTD50 was 2.935.

Turning to `Cc1ncc([N+](=O)[O-])n1C` [DIMETRIDAZOLE], the TD50 was 120.458 µmol/kg and the pTD50 is reported as 2.081.

Take `CNc1ccc(N(CCO)CCO)cc1[N+](=O)[O-]` [HC BLUE NO. 1]: the TD50 was determined as 1680.55 µmol/kg and the pTD50 was found to be 3.23.

Take `Cc1ncc([N+](=O)[O-])n1CCO` [METRONIDAZOLE]: the TD50 was 356.989 µmol/kg and the pTD50 was 2.553.

As for `O=C1NCCN1/N=C/c1ccc([N+](=O)[O-])o1` [NIFURADENE], the TD50 was found to be 23.646 µmol/kg and the pTD50 was 1.37.

In the case of `CC1CN(/N=C/c2ccc([N+](=O)[O-])o2)C(=O)N1` (stereo not drawn) [NIFURIMIDE], the TD50 turned out to be 22.418 µmol/kg and the pTD50 is 1.351.

With `O=CNNc1nc(-c2ccc([N+](=O)[O-])o2)cs1` [NIFURTHIAZOLE], the TD50 is 13.925 µmol/kg and the pTD50 amounted to 1.144.

On to `CCNC(=O)Nc1ncc([N+](=O)[O-])s1` [NITHIAZIDE], for which the TD50 turned out to be 605.88 µmol/kg and the pTD50 is 2.78.

`O=[N+]([O-])c1ccccc1` [NITROBENZENE]: the TD50 was 47.681 µmol/kg and the pTD50 is reported as 1.678.

In the case of `CC[N+](=O)[O-]` [NITROETHANE], the TD50 turned out to be 29174.093 µmol/kg and the pTD50 was found to be 4.465.

Consider `O=C1CN(/N=C/c2ccc([N+](=O)[O-])o2)C(=O)N1` [NITROFURANTOIN], for which the TD50 came out at 228.001 µmol/kg and the pTD50 came out at 2.358.

In the case of `NC(=O)N/N=C/c1ccc([N+](=O)[O-])o1` [NITROFURAZONE], the TD50 turned out to be 32.907 µmol/kg and the pTD50 was 1.517.

`O=[N+]([O-])OCC(CO[N+](=O)[O-])O[N+](=O)[O-]` [NITROGLYCERIN]: the TD50 is 1448.787 µmol/kg and the pTD50 is given as 3.161.

On to `CCCN(CCC)c1c([N+](=O)[O-])cc(C(F)(F)F)cc1[N+](=O)[O-]` [TRIFLURALIN], for which the TD50 was 17567.456 µmol/kg and the pTD50 was 4.245.
